# Laboratory results from patent publication US20230051589A1, “COMPOUNDS AND COMPOSITIONS FOR TREATING CONDITIONS ASSOCIATED WITH NLRP ACTIVITY” (Novartis AG, priority 2018, published 2023).
# Test system: IL-1β production in PMA-differentiated THP-1 cells
# Assay: IL-1β production in PMA-differentiated THP-1 cells stimulated with gramicidin (hTHP-1 assay, 2% fetal bovine serum; Procedures 1-3)
# Format: cell-based, human
# Details: Homo sapiens, THP-1, Table B1; hTHP-1 assay containing 2% fetal bovine serum, gramicidin stimulation, IL-1β readout; read-out: hTHP-1 IC50 (average)
# In short: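 PMA-primed THP-1 cells (20 ng/ml PMA, 16-18 h) in RPMI with 2% FBS were pre-incubated with compounds for 1 h, from 100 μM downward in 3-fold steps (0.37% DMSO final), then stimulated with 5 μM gramicidin for 2 h. IL-1β in the supernatant was quantified by HTRF.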
row,IC50,Structure (SMILES)
1,[…],"CC(C)(O)c1csc(S(N)(=O)=NC(=O)Nc2c3c(cc4c2CCC4)CCC3)n1 (stereo not shown) [Example 77, N′-(1,2,3,5,6,7-hexahydro-s-indacen-4-ylcarbamoyl)-4-(2-hydroxypropan-2-yl)thiazole-2-sulfonimidamide]"

# Same assay, conditions: Homo sapiens, THP-1, Table B3; hTHP-1 assay containing 2% fetal bovine serum, gramicidin stimulation, IL-1β readout; read-out: hTHP-1 IC50
row,IC50,Structure (SMILES)
1,200 to 1000 nM,"CNC1CCc2cc(S(N)(=O)=NC(=O)Nc3c4c(cc5c3CCC5)CCC4)sc2C1 (stereo not shown) [Example 778, N′-((1,2,3,5,6,7-hexahydro-s-indacen-4-yl)carbamoyl)-6-(methylamino)-4,5,6,7-tetrahydrobenzo[b]thiophene-2-sulfonimidamide]"
2,200 to 1000 nM,"C[C@](O)(COCCO)c1ccc([S@](N)(=O)=NC(=O)Nc2c3c(cc4c2CCC4)CCC3)s1 [Example 749, (R)-N′-((1,2,3,5,6,7-hexahydro-s-indacen-4-yl)carbamoyl)-5-((S)-2-hydroxy-1-(2-hydroxyethoxy)propan-2-yl)thiophene-2-sulfonimidamide]"
3,200 to 1000 nM,"NS(=O)(=NC(=O)Nc1c2c(cc3c1CCC3)CCC2)c1ccc([C@@H]2CCCN2)s1 (stereo partly drawn) [Example 730, N′-((1,2,3,5,6,7-hexahydro-s-indacen-4-yl)carbamoyl)-5-((S)-pyrrolidin-2-yl)thiophene-2-sulfonimidamide]"
4,40 to 200 nM,"CNCc1csc(S(N)(=O)=NC(=O)Nc2c3c(cc4c2CC4)CCC3)c1F (stereo not shown) [Example 777, 3-Fluoro-4-((methylamino)methyl)-N′-((2,4,5,6-tetrahydro-1H-cyclobuta[f]inden-3-yl)carbamoyl)thiophene-2-sulfonimidamide]"

# Same assay, conditions: Homo sapiens, THP-1, hTHP-1 assay containing 2% fetal bovine serum, Table B2, class symbols; read-out: IC50
row,IC50,Structure (SMILES)
1,5000 to 30000 nM,C[C@H](N[S@@](=O)(=NC(=O)Nc1c2c(cc3c1CCC3)CCC2)c1cnc(C(C)(C)O)s1)c1ccccc1 [Compound 887a]
2,5000 to 30000 nM,"COc1ccc([C@@H](C)NS(=O)(=NC(=O)Nc2c3c(cc4c2CCC4)CCC3)c2cnc(C(C)(C)O)s2)cc1 (stereo partly drawn) [Example 712, N′-((1,2,3,5,6,7-hexahydro-s-indacen-4-yl)carbamoyl)-2-(2-hydroxypropan-2-yl)-N-((R)-1-(4-methoxyphenyl)ethyl)thiazole-5-sulfonimidamide]"
3,1000 to 5000 nM,"CN(Cc1ccc(S(N)(=O)=NC(=O)Nc2c3c(cc4c2CCC4)CCC3)cc1)CC(F)F (single isomer, unassigned) [Example 610, (R) or (S)-4-(((2,2-difluoroethyl) (methyl)amino)methyl)-N′-((1,2,3,5,6,7-hexahydro-s-indacen-4-yl)carbamoyl) benzenesulfonimidamide]"
4,1000 to 5000 nM,"NS(=O)(=NC(=O)Nc1c2c(cc3c1CC3)CCC2)c1ccc(CN2CCC2)cc1F (stereo not shown) [Example 463, 4-(azetidin-1-ylmethyl)-2-fluoro-N′-((2,4,5,6-tetrahydro-1H-cyclobuta[f]inden-3-yl)carbamoyl)benzenesulfonimidamide]"
5,5000 to 30000 nM,CN(C)Cc1ccc([S@](N)(=O)=NC(=O)Nc2c3c(cc4c2CCC4)CCC3)s1 [Compound 889a]
6,1000 to 5000 nM,"N[S@@](=O)(=NC(=O)Nc1c2c(cc3c1CCC3)CCC2)c1ccc(CNC2CCC2)cc1 [Example 705, (R)-4-((cyclobutylamino)methyl)-N′-((1,2,3,5,6,7-hexahydro-s-indacen-4-yl)carbamoyl)-benzenesulfonimidamide]"
7,200 to 1000 nM,"COCc1nc(C(C)(C)O)sc1S(N)(=O)=NC(=O)Nc1c2c(c(C#N)c3c1CCC3)CCC2 (stereo not shown) [Example 679, N′-((8-cyano-1,2,3,5,6,7-hexahydro-s-indacen-4-yl)carbamoyl)-2-(2-hydroxypropan-2-yl)-4-(methoxymethyl)thiazole-5-sulfonimidamide]"

# Same assay, conditions: Homo sapiens, THP-1, hTHP-1 assay containing 2% fetal bovine serum, Table B2, given as bound; read-out: IC50
row,IC50,Structure (SMILES)
1,> 30000 nM,"NS(=O)(=NC(=O)Nc1c2c(cc3c1CCC3)CCC2)c1ccc(C2CCNC2)cc1F (single isomer, unassigned) [Example 622, (R,S) or (S,S)-2-fluoro-N′-((1,2,3,5,6,7-hexahydro-s-indacen-4-yl)carbamoyl)-4-pyrrolidin-3-yl) benzenesulfonimidamide]"

# Same assay, conditions: Table B1; hTHP-1 assay containing 2% fetal bovine serum, gramicidin stimulation, IL-1β readout; read-out: hTHP-1 IC50 (average)
row,IC50,Structure (SMILES)
2,40 to 200 nM,"CN(C)C(C)(C)c1ccc(S(N)(=O)=NC(=O)Nc2c3c(cc4c2CCC4)CCC3)cc1 (single isomer, unassigned) [Example 361, (R) or (S)-4-(2-(dimethyl-amino)propan-2-yl)-N′-((1,2,3,5,6,7-hexahydro-s-indacen-4-yl)carbamoyl)-benzenesulfonimidamide]"
3,200 to 1000 nM,"CC(C)(O)c1ncc(S(N)(=O)=NC(=O)Nc2c3c(cc4c2C(O)CC4)CCC3)s1 (single isomer, unassigned) [Example 392, (R, S) or (R, R) or (S, R) or (S, S)-N′-((3-hydroxy-1,2,3,5,6,7-hexahydroxy-indacen-4-yl)carbamoyl)-2-(2-hydroxypropan-2-yl)thiazole-5-sulfonimid-amide]"

# Same assay, conditions: Table B3; hTHP-1 assay containing 2% fetal bovine serum, gramicidin stimulation, IL-1β readout; read-out: hTHP-1 IC50
row,IC50,Structure (SMILES)
1,200 to 1000 nM,"NS(=O)(=NC(=O)Nc1c2c(cc3c1CCC3)CCC2)c1cc2c(s1)CCOC2 (single isomer, unassigned) [Example 789, (R) or (S)-N′-((1,2,3,5,6,7-hexahydro-5-indacen-4-yl)carbamoyl)-6,7-dihydro-4H-thieno[3,2-c]pyran-2-sulfonimidamide]"
2,200 to 1000 nM,"NS(=O)(=NC(=O)Nc1c2c(cc3c1CCC3)CCC2)c1cc2c(s1)CCNC2 (single isomer, unassigned) [Example 788, (S) or (R)-N′-((1,2,3,5,6,7-hexahydro-5-indacen-4-yl)carbamoyl)-4,5,6,7-tetrahydrothieno[3,2-c]pyridine-2-sulfonimidamide]"
3,> 30000 nM,"NS(=O)(=NC(=O)Nc1c2c(cc3c1CC3)CCC2)c1cc2c(s1)CCN(CC(F)F)C2 (single isomer, unassigned) [Example 873, (S) or (R) -5-(2,2-difluoroethyl)-N′-((2,4,5,6-tetrahydro-1H-cyclobuta[f]inden-3-yl)carbamoyl)-4,5,6,7-tetrahydrothieno[3,2-c]pyridine-2-sulfonimidamide]"
4,200 to 1000 nM,"CN(C)Cc1ccc(S(N)(=O)=NC(=O)Nc2c3c(cc4c2CCC4)CCC3)s1 (single isomer, unassigned) [Example 803, (R) or (S)-5-((dimethylamino)methyl)-N′-((1,2,3,5,6,7-hexahydro-5-indacen-4-yl)carbamoyl)thiophene-2-sulfonimidamide]"
5,40 to 200 nM,"NS(=O)(=NC(=O)Nc1c2c(cc3c1CC3)CCC2)c1nn(C(F)F)cc1F (single isomer, unassigned) [Example 839, (R) or (S)-1-(difluoromethyl)-4-fluoro-N′-((2,4,5,6-tetrahydro-1H-cyclobuta[f]inden-3-yl)carbamoyl)-1H-pyrazole-3-sulfonimidamide]"
6,1000 to 5000 nM,"CC1=CC(C)=[N+]2C1=Cc1ccc(CCC(=O)N(C)Cc3ccc([S@@](=N)(=O)NC(=O)Nc4c5c(cc6c4CCC6)CCC5)cc3)n1[B-]2(F)F [Example 745, (S)-3-(5,5-difluoro-7,9-dimethyl-5H-5λ4,6λ4-dipyrrolo[1,2-c:2′,1′-f][1,3,2]diazaborinin-3-yl)-N-(4-(N′-((1,2,3,5,6,7-hexahydro-s-indacen-4-yl)carbamoyl)sulfamidimidoyl)benzyl)-N-methylpropanamide]"
7,1000 to 5000 nM,"NS(=O)(=NC(=O)Nc1c2c(cc3c1CC3)CCC2)c1sc(CN2CCC2)cc1F (single isomer, unassigned) [Example 844, (S) or (R)-5-(azetidin-1-ylmethyl)-3-fluoro-N′-((2,4,5,6-tetrahydro-1H-cyclobuta[f]inden-3-yl)carbamoyl)thiophene-2-sulfonimidamide]"

# Same assay, conditions: hTHP-1 assay containing 2% fetal bovine serum, Table B2, class symbols; read-out: IC50
row,IC50,Structure (SMILES)
1,5000 to 30000 nM,"CC(C)(O)c1cnc(S(N)(=O)=NC(=O)Nc2c3c(cc4c2CCC4O)CCC3)s1 (single isomer, unassigned) [Example 658, (R,S) or (R,R)-N′-((1-hydroxy-1,2,3,5,6,7-hexahydro-5-indacen-4-yl)carbamoyl)-5-(2-hydroxypropan-2-yl)thiazole-2-sulfonimidamide]"
2,200 to 1000 nM,"CC(C)c1cc(S(N)(=O)=NC(=O)Nc2c3c(cc4c2CCC4)CCC3)c(F)cn1 (single isomer, unassigned) [Example 555, (R) or (S)-5-fluoro-N′-((1,2,3,5,6,7-hexahydro-s-indacen-4-yl)carbamoyl)-2-isopropylpyridine-4-sulfonimidamide]"
3,1000 to 5000 nM,"CC(OC(F)F)c1ccc(S(N)(=O)=NC(=O)Nc2c3c(cc4c2CCC4)CCC3)cc1 (single isomer, unassigned) [Example 638]"
4,200 to 1000 nM,"NS(=O)(=NC(=O)Nc1c2c(cc3c1CC3)CCC2)c1ccc(CN2CCC2)cc1F (single isomer, unassigned) [Example 524, (R) or (S)-4-(azetidin-1-ylmethyl)-2-fluoro-N′-((2,4,5,6-tetrahydro-1H-cyclobuta[f]inden-3 - yl)carbamoyl) benzenesulfonimidamide]"

row,Structure (SMILES),IC50
1,"N[S@@](=O)(=NC(=O)Nc1c2c(cc3c1CCC3)CCC2)c1ccc(C(F)F)nc1 (single isomer, unassigned) [Example 595, (R) or (S)-6-(difluoromethyl)-N′-((1,2,3,5,6,7-hexahydroxy-indacen-4-yl)carbamovl)pyridine-3-sulfonimidamide]",1000 to 5000 nM
